The source of these data is patent publication US20140135293A1, “ALLENE DERIVATIVES AS SPHINGOSINE 1-PHOSPHATE (S1P) RECEPTOR MODULATORS” (ALLERGAN, INC., priority 2012, published 2014).

The term EC50 denotes the concentration giving half of the maximal effect. Read a low EC50 as higher potency in that assay.

In this assay the target is T1, human S1P1 receptor (Homo sapiens, UniProt P21453).
T1 construct: expressed in transfected cells; membranes used
T1 sequence (P21453 whole entry): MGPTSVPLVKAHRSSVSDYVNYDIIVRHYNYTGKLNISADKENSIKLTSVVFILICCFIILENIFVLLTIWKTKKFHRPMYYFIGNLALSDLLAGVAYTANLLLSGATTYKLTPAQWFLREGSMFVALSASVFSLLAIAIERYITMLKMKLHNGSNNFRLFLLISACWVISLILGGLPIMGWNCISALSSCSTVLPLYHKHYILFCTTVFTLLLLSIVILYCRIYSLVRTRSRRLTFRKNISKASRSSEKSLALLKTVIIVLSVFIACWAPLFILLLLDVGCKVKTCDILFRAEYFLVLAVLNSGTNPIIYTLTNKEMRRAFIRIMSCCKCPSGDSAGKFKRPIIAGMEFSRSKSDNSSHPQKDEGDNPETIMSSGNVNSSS
Put plainly: GTP y35S binding assay for S1P1 activity. In kind it is biochemical. As to conditions: membranes of cells stably expressing the S1P1 receptor, agonist potency. The procedure: Compounds were synthesized and tested for S1P1 activity using the GTP y^35S binding assay. These compounds may be assessed for their ability to activate or block activation of the human S1P1 receptor in cells stably expressing the S1P1 receptor.
GTP y^35S binding was measured in the medium containing (mM) HEPES 25, pH 7.4, MgCl2 10, NaCl 100, dithitothreitol 0.5, digitonin 0.003%, 0.2 nM GTP y^35S, and 5 μg membrane protein in a volume of 150 μl. Test compounds were included in the concentration range from 0.08 to 5,000 nM unless indicated otherwise. Membranes were incubated with 100 μM […] for 30 min, and subsequently with 10 μM GDP for 10 min on ice. Drug solutions and membrane were mixed, and then reactions were initiated by adding GTP y^35S and continued for 30 min at 25° C. Reaction mixtures were filtered over Whatman GF/B filters under vacuum, and washed three times with 3 mL of ice-cold buffer (HEPES 25, pH7.4, MgCl2 10 and NaCl 100). Filters were dried and mixed with scintillant, and counted for ^35S activity using a ([…]. Agonist-induced GTP y^35S binding was obtained by subtracting that in the absence of agonist. Binding data were analyzed using a non-linear regression method. In case of antagonist assay, the reaction mixture contained 10 nM […] in the presence of test antagonist at concentrations ranging from 0.08 to 5000 nM.
`Cc1ccc(CC(=C=Cc2ccc(CNCCCP(=O)(O)O)cc2-c2cccs2)c2cc(F)cc(F)c2)cc1C` [Compound 1, [3-({4-[3-(3,5-difluorophenyl)-4-(3,4-dimethylphenyl)buta-1,2-dien-1-yl]-3-(2-thienyl)benzyl}amino)propyl]phosphonic acid]: a half-maximal response (EC50) required 58.4 nM.

`Cc1ccc(CC(=C=Cc2ccc(CNCCCP(=O)(O)O)cc2-c2ccco2)c2cc(F)cc(F)c2)cc1C` [Compound 2, [3-({4-[3-(3,5-Difluorophenyl)-4-(3,4-dimethylphenyl)buta-1,2-dien-1-yl]-3-(2-furyl)benzyl}amino)propyl]phosphonic acid] gave an EC50 of 58.5 nM.

For `CCc1cc(C=C=C(Cc2ccc(C)c(C)c2)c2cc(F)cc(F)c2)ccc1CNCCCP(=O)(O)O` [Compound 3, [3-({4-[3-(3,5-Difluorophenyl)-4-(3,4-dimethylphenyl)buta-1,2-dien-1-yl]-2-ethylbenzyl}amino)propyl]phosphonic acid], it took 1640 nM to reach a half-maximal effect (EC50).
